Experimental data from US20170204380A1, “GLYCOSYL TRANSFERASES AND THEIR USES” (TECHNISCHE UNIVERSITAT MUNCHEN, priority 2014, published 2017).
Like-named read-outs stand apart in the source and are kept apart here.

Tests used:
[1] = molecular target: T1, VvGT14a (Vitis vinifera, UniProt F6H0R6); assay: Substrate screening, radiochemical analysis with UDP-[14C]glucose; format: biochemical
Method: (§1) In the initial screening, each reaction mixture (200 μL in total) contained Tris-HCl buffer (100 mM, pH 8, 10 mM 2-mercaptoethanol), 37 pmol UDP-[^14C]glucose (0.01 μCi, Biotrend, Köln, Germany), substrate (50 μL of a 1 mg/mL stock solution) and purified protein (0.5-0.8 μg/μL). […] The organic phase was mixed with 2 mL Pro Flow P+ cocktail (Meridian Biotechnologies Ltd., Epsom, UK) and radioactivity was determined by liquid scintillation counting (LSC, Tri-Carb 2800TR, Perkin Elmer, Waltham Mass., USA). Additionally, negative controls without substrate were performed.
(§2) The recombinant proteins were expressed with an N-terminal GST-tag, affinity purified and verified by SDS-PAGE and Western Blot using GST-specific antibody.

[2] = molecular target: T2, VvGT16 (Vitis vinifera, UniProt F6HTJ4); assay: as above; format: biochemical
T2 sequence (F6HTJ4 entry or part of it): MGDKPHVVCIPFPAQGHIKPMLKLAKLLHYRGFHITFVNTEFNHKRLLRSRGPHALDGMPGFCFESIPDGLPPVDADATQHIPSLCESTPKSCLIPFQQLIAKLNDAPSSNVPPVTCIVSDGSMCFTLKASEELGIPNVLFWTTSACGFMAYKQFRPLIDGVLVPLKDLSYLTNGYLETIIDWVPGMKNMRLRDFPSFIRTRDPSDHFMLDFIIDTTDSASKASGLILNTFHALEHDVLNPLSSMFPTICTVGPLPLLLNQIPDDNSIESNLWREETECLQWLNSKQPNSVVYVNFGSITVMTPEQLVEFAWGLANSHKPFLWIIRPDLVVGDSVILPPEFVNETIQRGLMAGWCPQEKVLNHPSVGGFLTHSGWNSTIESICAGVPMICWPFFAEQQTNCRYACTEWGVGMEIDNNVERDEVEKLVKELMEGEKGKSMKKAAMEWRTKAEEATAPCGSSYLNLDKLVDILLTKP
Method: as §1, §2

[3] = molecular target: T3, VvGT15a (Vitis vinifera, UniProt A0ABY9C1E0); assay: as above; format: biochemical
Method: as §1, §2

[4] = molecular target: T4, VvGT15c (Vitis vinifera, UniProt A0ABY9C1E0); assay: as above; format: biochemical
Method: as §1, §2

[5] = molecular target: T3, VvGT15a; format: biochemical; conditions: UDP-glucose fixed 833 μM (for UDP-glucose: geraniol fixed 1.25 mM), Tris-HCl pH 7.5, 30° C.
Method: (§3) The measurements were performed under the following conditions. […] Radioactivity was determined by LSC.

[6] = molecular target: T5, VvGT15b (Vitis vinifera, UniProt A0ABY9C1E0); format: biochemical; conditions: UDP-glucose fixed 833 μM (for UDP-glucose: geraniol fixed 1.25 mM), Tris-HCl pH 7.5, 30° C.
Method: as §3

[7] = molecular target: T4, VvGT15c; format: biochemical; conditions: UDP-glucose fixed 833 μM (for UDP-glucose: geraniol fixed 1.25 mM), Tris-HCl pH 7.5, 30° C.
Method: as §3

[8] = molecular target: T2, VvGT16; conditions: UDP-glucose fixed 512.5 μM (for UDP-glucose: geraniol fixed 1.25 mM), Tris-HCl pH 8.5, 30° C.
Method: as §3

[9] = molecular target: T5, VvGT15b; assay: Substrate screening, radiochemical analysis with UDP-[14C]glucose; format: biochemical
Method: as §1, §2

[10] = molecular target: T1, VvGT14a; conditions: for kcat/KM of VvGT14a higher than the value for UGT85B1 from Sorghum bicolor: VvGT14a versus UGT85B1; for Km / kcat: pH 8.5
[11] = test system: CaUGT2; conditions: CaUGT2, natural substrate; cited from earlier work
[12] = molecular target: T6, VvGT1 (Vitis vinifera, UniProt P51094); conditions: VvGT1, natural substrate; cited from earlier work
T6 sequence (P51094 1-456): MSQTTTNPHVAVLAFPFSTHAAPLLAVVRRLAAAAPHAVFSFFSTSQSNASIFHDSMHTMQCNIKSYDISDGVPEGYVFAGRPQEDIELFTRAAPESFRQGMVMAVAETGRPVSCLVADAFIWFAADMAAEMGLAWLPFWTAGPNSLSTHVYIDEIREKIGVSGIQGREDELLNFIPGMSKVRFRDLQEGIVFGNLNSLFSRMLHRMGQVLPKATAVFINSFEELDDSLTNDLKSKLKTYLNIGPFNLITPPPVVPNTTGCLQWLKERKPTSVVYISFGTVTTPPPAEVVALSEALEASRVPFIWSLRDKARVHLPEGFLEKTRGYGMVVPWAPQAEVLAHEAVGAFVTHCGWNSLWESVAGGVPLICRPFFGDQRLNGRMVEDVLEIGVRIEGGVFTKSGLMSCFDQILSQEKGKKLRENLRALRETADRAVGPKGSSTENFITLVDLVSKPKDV

[13] = test system: VvGT5; conditions: cited from earlier work
[14] = test system: VvGT6; conditions: cited from earlier work
[15] = test system: UGT71G1; conditions: cited from earlier work
[16] = substrate: CC(C)=CCC[C@H](C)CCO; assay: purified protein, by the assay type; conditions: UDP-glucose fixed 833 μM (for UDP-glucose: geraniol fixed 1.25 mM), Tris-HCl pH 7.5, 30° C.
[17] = substrate: CC(C)=CCC/C(C)=C\CO; assay: purified protein, by the assay type; format: biochemical, Vitis vinifera; conditions: UDP-glucose fixed 833 μM (for UDP-glucose: geraniol fixed 1.25 mM), Tris-HCl pH 7.5, 30° C.

T1 sequence (F6H0R6 entry or part of it): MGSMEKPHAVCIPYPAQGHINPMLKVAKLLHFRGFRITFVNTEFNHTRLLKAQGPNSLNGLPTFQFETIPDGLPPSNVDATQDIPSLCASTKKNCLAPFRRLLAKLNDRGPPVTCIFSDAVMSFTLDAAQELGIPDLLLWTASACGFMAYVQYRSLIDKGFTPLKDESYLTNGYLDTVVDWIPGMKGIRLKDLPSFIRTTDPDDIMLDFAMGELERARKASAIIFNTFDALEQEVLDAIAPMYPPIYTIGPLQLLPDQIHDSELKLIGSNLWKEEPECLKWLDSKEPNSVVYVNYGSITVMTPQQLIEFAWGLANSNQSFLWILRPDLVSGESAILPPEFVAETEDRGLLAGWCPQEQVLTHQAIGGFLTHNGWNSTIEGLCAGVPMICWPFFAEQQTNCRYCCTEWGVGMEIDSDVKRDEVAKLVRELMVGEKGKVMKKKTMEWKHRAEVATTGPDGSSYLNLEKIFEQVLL

With `CC(C)=CCO` [3-methyl-2-butenol] the “conversion as substrate (in words)” value [1] was “catalytic activity” and the “conversion as substrate (in words)” value [2] was “transformed”.

For `C=C(C)CCO` [3-methyl-3-butenol], the “conversion as substrate (in words)” value [1] was “catalytic activity”.

In the case of `C=CC(C)(O)CC/C=C(\C)CO` (stereo not shown) [8-hydroxylinalool], the “conversion as substrate (in words)” value [1] is reported as “catalytic activity”, the “conversion as substrate (in words)” value [3] is reported as “able to use” and the “conversion as substrate (in words)” value [4] is reported as “able to use”.

`CC(C)=CCC/C(C)=C/CO` [Geraniol, (E)-3,7-dimethyl-2,6-octadien-1-ol] gave a Km [5] of 63 µM, a kcat [5] of 0.12 s⁻¹ and a Km [6] of 81 µM. For the same molecule, the kcat [6] was 0.10 s⁻¹, the kcat ([6]; listed as geraniol) was 0.1 s⁻¹ and the Km [7] was 43 µM. The kcat [7] was 0.17 s⁻¹, the kcat [8] was 0.015 s⁻¹ and the “conversion as substrate (in words)” value [1] was “preferred”. For the same molecule, the “conversion as substrate (in words)” value [3] was “glucosylated primarily”, the “conversion as substrate (in words)” value [9] was “glucosylated primarily” and the “conversion as substrate (in words)” value [4] was “glucosylated primarily”. For the same molecule, the “kcat/KM of VvGT14a higher than the value for UGT85B1 from Sorghum bicolor” value [10] was 4 fold, the Km [10] was 9 µM and the kcat [10] was 0.02 s⁻¹.

With `CC(C)=CCC/C(C)=C\CO` [Nerol, (Z)-3,7-dimethyl-2,6-octadien-1-ol] the kcat [8] was 0.009 s⁻¹, the “conversion as substrate (in words)” value [3] was “glucosylated primarily” and the “conversion as substrate (in words)” value [9] was “glucosylated primarily”. The “conversion as substrate (in words)” value [4] was “glucosylated primarily”, the “conversion as substrate (in words)” value [2] was “transformed” and the “kcat/KM of VvGT14a higher than the value for UGT85B1 from Sorghum bicolor” value [10] was 40 fold. It also gave a Km [10] of 10 µM and a kcat [10] of 0.02 s⁻¹.

For `OCc1ccccc1` [benzyl alcohol], the “conversion as substrate (in words)” value [1] was “catalytic activity” and the “conversion as substrate (in words)” value [2] was “highest relative activity”.

For `CC/C=C\CCO` [cis 3-hexenol], the “conversion as substrate (in words)” value [1] was “catalytic activity” and the “conversion as substrate (in words)” value [2] was “transformed”.

In the case of `COc1cc(/C=C/C(=O)CC(=O)/C=C/c2ccc(O)c(OC)c2)ccc1O` [curcumin], the Km [11] is listed as 43.9 µM and the kcat [11] is listed as 0.0165 s⁻¹.

With `C=CCc1ccc(O)c(OC)c1` [eugenol] the “conversion as substrate (in words)” value [1] was “catalytic activity”.

In the case of `CC(C)=CCCC(C)=CCCC(C)=CCO` [farnesol], the “conversion as substrate (in words)” value [1] is reported as “catalytic activity” and the “conversion as substrate (in words)” value [3] is reported as “low activity”.

In the case of `CCCCCCO` [hexanol], the “conversion as substrate (in words)” value [3] is reported as “glucosylated primarily”, the “conversion as substrate (in words)” value [9] is reported as “glucosylated primarily” and the “conversion as substrate (in words)” value [4] is reported as “glucosylated primarily”.

With `N#CC(O)c1ccccc1` (stereo not shown) [mandelonitrile] the “conversion as substrate (in words)” value [1] was “catalytic activity”, the “conversion as substrate (in words)” value ([1]; listed as Mandelonitrile) was “poor substrate” and the “conversion as substrate (in words)” value [3] was “not accepted at all”. For the same molecule, the “conversion as substrate (in words)” value [9] was “not accepted at all” and the “conversion as substrate (in words)” value [4] was “not accepted at all”.

With `CCCCCCCCO` [octanol] the “conversion as substrate (in words)” value [3] was “glucosylated primarily”, the “conversion as substrate (in words)” value [9] was “glucosylated primarily” and the “conversion as substrate (in words)” value [4] was “glucosylated primarily”.

For `O=c1c(O)c(-c2ccc(O)c(O)c2)oc2cc(O)cc(O)c12` [quercetin], the Km [12] is listed as 31 µM, the kcat [12] is listed as 0.075 s⁻¹ and the Km [13] is listed as 5.6 µM. For the same molecule, the kcat [13] was 7.16 s⁻¹, the Km [14] was 9.24 µM and the kcat [14] was 0.76 s⁻¹. For the same molecule, the Km [15] was 57 µM and the kcat [15] was 0.0175 s⁻¹.

In the case of `CCC/C=C/CO` [trans 2-hexenol], the “conversion as substrate (in words)” value [1] is reported as “catalytic activity”, the “conversion as substrate (in words)” value [3] is reported as “able to use” and the “conversion as substrate (in words)” value [4] is reported as “able to use”. For the same molecule, the “conversion as substrate (in words)” value [2] was “transformed”.

B1: VvGT15a (Vitis vinifera) (protein)
chain: MPRRVVLVPCPFQGHINPMLQLGAILHSRGFSITVAHTQYNSPDPSNHPDFSFLPIPDGLSDGQNFASLLNLVLAANVNCESPLREYLAEKQEQHGDIACIIHDITMYFAEAVANHLKVPSINLVTSNVSTTIAHNAFPSLLEKGHIPLQGSTLHDPVPELHPLRFKDLPISRLGDLEVFFQILVNMYKKKFSSPIIWNTMDCLEQSSLTQRQQQLQVPFFPIGPLHKLAPPSSSSLLEEDSSCITWLDKQSPKSVIYVSWGSLACMDAKDLAEVAWGLANSNQPFLWVVRPGSVRGSQWIEQLPETFMDTVGERCHIVKWAPQKEVLGHRAVGGFWSHCGWNSTLESISEGVPMICRPYSGDQRVNTRYISHVWKVGLELESDELERVEIERAVRRLMVDGEGEEMRQRAMELKEKVEICTSEGGSSNRALKELVEYISSF
B1 gave a Km ([16]; other: VvGT15a) of 29 ± 3.0 µM, a kcat ([16]; other: VvGT15a) of 0.02 s⁻¹ and a kcat/Km ([16]; other: VvGT15a) of 900 M⁻¹ s⁻¹. It also gave a Km ([17]; other: VvGT15a) of 48 ± 1.7 µM, a kcat ([17]; other: VvGT15a) of 0.04 s⁻¹ and a kcat/Km ([17]; other: VvGT15a) of 700 M⁻¹ s⁻¹.

B2: VvGT15b (Vitis vinifera) (protein)
chain: MPRRVVLVPCPFQGHINPMLQLGAILHSRGFSITVAHTQYNSPDPSNHPDFSFLPIPDGLSDGQNFASLLNLVLAANVNCESPLRECLAEKQEQHGDIACIIHDITMYFAEAVANHLKVPSINLVTSNVSTTIAHNAFPSLLEKGHIPLQGSTLHDPVPELHPLRFKDLPISRLGDLEAFFQILVNMYKKKFSSPIIWNTMDCLEQSSLTQRQQQLQVPFFPIGPLHKLAPPSSSSLLEEDSSCITWLDKHSPKSVIYVSWGSLACMDAKDLAEVAWGLANSNQPFLWVVRPGSVRGSQWIEQLPETFMDTVGERCHIVKWAPQKEVLGHRAVGGFWSHCGWNSTLESISEGVPMICRPYSGDQRVNTRYISHVWKVGLELESDELERVEIERAVRRLMVDGEGEEMRQRAMELKEKVDICTSEGGSSNRALKELVEYISSF
In the case of B2, the Km ([16]; other: VvGT15b) is reported as 55 ± 1.3 µM, the kcat ([16]; other: VvGT15b) is reported as 0.03 s⁻¹ and the kcat/Km ([16]; other: VvGT15b) is reported as 600 M⁻¹ s⁻¹. It also gave a Km ([17]; other: VvGT15b) of 40 ± 3.7 µM, a kcat ([17]; other: VvGT15b) of 0.03 s⁻¹ and a kcat/Km ([17]; other: VvGT15b) of 800 M⁻¹ s⁻¹.

B3: VvGT15c (Vitis vinifera) (protein)
chain: MPRRVVLVPCPFQGHINPMLQLGAILHSRGFSITVAHTQYNSPDPSNHPDFSFLPIPDGLSDGQNFASLLNLVLAANVNCESPLRECLAEKQEQHGDIACIIHDITMYFAEAVANHLKVPSINLVTSNVSTTIAHNAFPSLLEKGHIPLQGSTLHDPVPELHPLRFKDLPISRLGDLEAFFQILVNMYKKKFSSPIIWNTMDCLEQSSLTQRQQQLQVPFFPIGPLHKLAPPSSSSLLEEDSSCITWLDKHSPKSVIYVSWGSLACMDAKDLAEVAWGLANSNQPFLWVVRPGSVRGSQWIEQLPETFMDTVGERCHIVKWAPQKEVLGHRAVGGFWSHCGWNSTLESISEGVPMICRPYSGDQRVNTRYISHVWKVGLELESDELERVEIERAVRRLMVDGEGEEMRQRAMELKEKVDICTSEGGSSNRALKELVEYISSF
With B3 the Km ([16]; other: VvGT15c) was 20 ± 1.6 µM, the kcat ([16]; other: VvGT15c) was 0.03 s⁻¹ and the kcat/Km ([16]; other: VvGT15c) was 1800 M⁻¹ s⁻¹. It also gave a Km ([17]; other: VvGT15c) of 28 ± 0.9 µM, a kcat ([17]; other: VvGT15c) of 0.06 s⁻¹ and a kcat/Km ([17]; other: VvGT15c) of 2200 M⁻¹ s⁻¹.
